One experiment deals with PERK enzyme (Homo sapiens (Human), UniProt Q9NZJ5). Kind of experiment: Biochemical assay for PERK (coupled pyruvate kinase/lactate dehydrogenase). As to conditions: 1 mM ATP. The method, then:
Activity of PERK kinase was determined spectroscopically using a coupled pyruvate kinase/lactate dehydrogenase assay that continuously monitors the ATP hydrolysis-dependent oxidation of NADH (e.g., Schindler et al. Science (2000) 289: 1938-1942). Assays were conducted in 384-well plates ([…] final volume) using 10 nM PERK (from Beryllium), 0.25 mg/mL Myelin Basic Protein substrate, 1.5 units pyruvate kinase, 2.1 units lactate dehydrogenase, 1 mM phosphoenol pyruvate, 0.28 mM NADH and 1 mM ATP in assay buffer (100 mM Tris, pH 7.5, 15 mM MgCl2, 0.5 mM DTT, 0.004% (w/v) BSA, and 0.004% Triton X-100). Inhibition of PERK was measured by adding serial diluted test compound (final assay concentration of 1% DMSO). A decrease in absorption at 340 nm was monitored continuously for 6 hours at 30° C. on a multi-mode microplate reader (BioTek). The reaction rate was calculated using the 2-3 h time frame. The reaction rate at each concentration of compound was converted to percent inhibition using controls (i.e., reaction with no test compound and reaction with a known inhibitor) and IC50 values were calculated using software routines in Prism (GraphPad software).

In experiment [1] the test system is ATF4 in thapsigargin stimulated CCRF-CEM cells (PERK). Kind of experiment: CCRF-CEM thapsigargin (TG) ATF4 ELISA. It counts as cell-based. The note with it: Homo sapiens, 1 μM thapsigargin. The method, then: CCRF-CEM leukemia cells (catalog #CCL-116) were obtained from the American Type Culture Collection (ATTC, Manassas, VA). Briefly, cells were grown in RPMI-1640 medium supplemented with 10% heat-inactivated fetal bovine serum (Invitrogen, Carlsbad, CA) and 1% Penicillin/Streptomycin/L-Glutamine at 37° C., 5% CO2, and 95% humidity. Cells were expanded until reaching one million cells per mL at which time they were subcultured or harvested for assay use. One million five hundred thousand cells per well in 1 mL complete growth medium were dispensed into 12-well plates and incubated overnight. A serial dilution of test compound was added and cells were incubated at 37° C., 5% CO2, and 95% for three hours, then 1 μM thapsigargin was added and cells were incubated for an additional hour at 37° C., 5% CO2, and 95%. Cells were lysed then ATF4 levels were measured using an ELISA assay (Proteintech, Rosemont, IL). Absorbance was measured at 450 nm and 544 nM using a Synergy2 or equivalent reader (Biotek, Winooski VT). Data was analyzed using PRISM software (Graphpad, San Diego, CA) to calculate IC50 values.

In the next experiment the target is GCN2 kinase (Homo sapiens (Human), UniProt Q9P2K8). Kind of experiment: Biochemical assay for GCN2 (TR-FRET kinase activity). The note with it: 1 mM ATP. As for the experimental part: Activity of GCN2 kinase was determined using a TR-FRET kinase activity assay (e.g. Riddle et al. Analytical Biochemistry (2006) 356(1) 108-116). Assays were conducted in 384-well plates (13 μL assay volume) using 2 nM GCN2 (Carna Biosciences), 130 nM GFP-EIf2α (Invitrogen), 0.2 mg/mL E. coli tRNA (sigma) and 1 mM ATP in kinase buffer (Invitrogen). Inhibition of GCN2 was measured by adding serial diluted test compound (final assay concentration of 0.5% DMSO) followed by a 3-hour incubation. Tb-peIF2α (pSer52) antibody (Invitrogen) (2 nM final assay concentration) in kinase buffer containing EDTA (final assay concentration of 20 mM) was added. After a 60 min incubation at room temperature, TR-FRET was monitored using an excitation wavelength of 340 nm and emission wavelengths of 490 nm and 520 nm. The emission ratio (520/490) at each compound concentration of was converted to percent inhibition using controls (i.e., reaction with no test compound and reaction with a known inhibitor) and IC50 values were calculated by fitting a four-parameter sigmoidal curve to the data using Prism (GraphPad software).
Chain of GCN2 kinase (Q9P2K8 whole entry): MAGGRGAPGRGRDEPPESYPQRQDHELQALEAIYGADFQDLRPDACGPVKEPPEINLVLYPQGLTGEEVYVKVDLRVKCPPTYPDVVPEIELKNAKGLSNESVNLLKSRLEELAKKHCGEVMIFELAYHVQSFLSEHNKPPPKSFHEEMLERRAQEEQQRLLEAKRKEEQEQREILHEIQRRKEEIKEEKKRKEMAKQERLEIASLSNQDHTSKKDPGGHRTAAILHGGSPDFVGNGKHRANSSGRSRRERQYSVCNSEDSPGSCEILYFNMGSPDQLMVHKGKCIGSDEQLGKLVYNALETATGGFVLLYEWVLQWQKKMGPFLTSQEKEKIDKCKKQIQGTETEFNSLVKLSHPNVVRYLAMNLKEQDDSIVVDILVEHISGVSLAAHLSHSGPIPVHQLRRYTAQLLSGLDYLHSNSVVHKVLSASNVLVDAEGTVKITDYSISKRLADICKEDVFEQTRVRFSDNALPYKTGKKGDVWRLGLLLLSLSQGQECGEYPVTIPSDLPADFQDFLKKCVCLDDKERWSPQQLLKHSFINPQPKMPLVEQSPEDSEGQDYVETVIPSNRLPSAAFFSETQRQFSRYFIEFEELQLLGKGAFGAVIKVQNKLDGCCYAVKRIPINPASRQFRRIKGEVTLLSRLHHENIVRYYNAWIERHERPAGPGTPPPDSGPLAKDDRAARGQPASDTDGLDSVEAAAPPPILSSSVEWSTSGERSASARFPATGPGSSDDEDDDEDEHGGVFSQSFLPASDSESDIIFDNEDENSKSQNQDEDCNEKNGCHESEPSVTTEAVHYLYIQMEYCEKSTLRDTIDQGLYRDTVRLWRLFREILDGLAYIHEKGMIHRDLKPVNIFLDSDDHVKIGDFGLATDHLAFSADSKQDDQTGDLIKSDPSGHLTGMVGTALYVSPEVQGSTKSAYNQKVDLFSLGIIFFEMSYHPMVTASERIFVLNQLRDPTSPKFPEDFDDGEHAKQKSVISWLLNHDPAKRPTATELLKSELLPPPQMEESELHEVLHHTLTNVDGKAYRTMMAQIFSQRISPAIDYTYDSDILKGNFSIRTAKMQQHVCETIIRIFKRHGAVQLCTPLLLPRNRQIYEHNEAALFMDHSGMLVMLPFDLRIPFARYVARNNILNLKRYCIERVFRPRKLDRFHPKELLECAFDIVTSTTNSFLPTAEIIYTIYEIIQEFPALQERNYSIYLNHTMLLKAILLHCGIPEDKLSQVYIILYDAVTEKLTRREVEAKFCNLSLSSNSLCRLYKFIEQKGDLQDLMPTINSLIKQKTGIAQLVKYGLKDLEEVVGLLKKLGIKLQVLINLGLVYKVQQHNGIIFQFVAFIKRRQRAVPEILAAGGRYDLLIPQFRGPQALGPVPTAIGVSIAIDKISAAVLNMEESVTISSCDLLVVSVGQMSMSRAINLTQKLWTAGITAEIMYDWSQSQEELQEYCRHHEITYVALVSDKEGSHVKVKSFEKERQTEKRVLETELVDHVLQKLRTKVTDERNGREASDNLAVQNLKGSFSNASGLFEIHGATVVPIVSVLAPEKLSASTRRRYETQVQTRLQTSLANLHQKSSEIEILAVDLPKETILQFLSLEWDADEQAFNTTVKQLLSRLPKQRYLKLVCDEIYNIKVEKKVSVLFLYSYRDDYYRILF

For the next experiment, the system named is CCRF-CEM leukemia cells. Kind of experiment: CCRF-CEM ASNase cell proliferation assay. It counts as cell-based. The note with it: Homo sapiens, 1 mU/mL ASNase, 72 h. As for the experimental part:
CCRF-CEM leukemia cells (catalog #CCL-116) were obtained from the American Type Culture Collect (ATTC, Manassas, VA). Cells were grown in RPMI-1640 medium supplemented with 10% heat-inactivated fetal bovine serum (Invitrogen, Carlsbad, CA) and 1% Penicillin/Streptomycin/L-Glutamine at 37° C., 5% CO2, and 95% humidity. Cells were expanded until reaching one million cells per mL at which time they are subcultured or harvested for assay use. Ten thousand cells per well in 200 μL RPMI-1640 supplemented with 10% heat-inactivated fetal bovine serum and 1% Penicillin/Streptomycin were dispensed into a 96-well black clear bottom plate. A serial dilution of test compound and 1 mU/mL ASNase was added in triplicate and plates were incubated for 72 h at 37° C., 5% CO2, and 95% humidity. At the end of the incubation, 40 μL of a […] solution of resazurin (Sigma, St. Louis, MO) in PBS was added to each well of the plate and plates were incubated for an additional 6 h at 37° C., 5% CO2, and 95% humidity. Plates were read on a Synergy2 or equivalent reader (Biotek, Winooski VT) using an excitation of 540 nm and an emission of 600 nm. Data was analyzed using GraphPad Prism software (GraphPad, San Diego, CA) to calculate IC50 values.

Experiment [2] relates to ATF4 in H929 multiple myeloma cells. Kind of experiment: H929 ATF4 ELISA assay. It counts as cell-based. As to conditions: four hours, relative to vehicle treated control. As for the experimental part:
H929 multiple myeloma cells (catalog #CRL-9068) were obtained from the American Type Culture Collection (ATTC, Manassas, VA). Briefly, cells were grown in RPMI-1640 medium supplemented with 20% heat-inactivated fetal bovine serum (catalog #A3840002, ThermoFisher Scientific, Waltham, MA), 1% Penicillin/Streptomycin/L-Glutamine (catalog #10378016, ThermoFisher Scientific, Waltham, MA), and 0.05 mM 2-mercaptoethanol (catalog #21985-023, ThermoFisher Scientific, Waltham, MA) at 37° C., 5% CO2, and 95% humidity. Cells were expanded until reaching one million five hundred thousand cells per mL at which time they were sub-cultured or harvested for assay use. One million five hundred thousand cells per well in 1 mL complete growth medium were dispensed into 12-well plates and incubated overnight. A serial dilution of test compound was added, and cells were incubated at 37° C., 5% CO2, and 95% for four hours. Cells were lysed then ATF4 levels were measured using an ELISA assay (Proteintech, Rosemont, IL). Absorbance is measured at 450 nm and 544 nM using a Synergy2 or equivalent reader (Biotek, Winooski VT). Data were analyzed using PRISM software (Graphpad, San Diego, CA) to calculate fold stimulation of cellular ATF4 relative to vehicle treated control.

Structures are written as SMILES.

Chain of PERK enzyme (Q9NZJ5 other isoform, or with tags, fused parts or gaps): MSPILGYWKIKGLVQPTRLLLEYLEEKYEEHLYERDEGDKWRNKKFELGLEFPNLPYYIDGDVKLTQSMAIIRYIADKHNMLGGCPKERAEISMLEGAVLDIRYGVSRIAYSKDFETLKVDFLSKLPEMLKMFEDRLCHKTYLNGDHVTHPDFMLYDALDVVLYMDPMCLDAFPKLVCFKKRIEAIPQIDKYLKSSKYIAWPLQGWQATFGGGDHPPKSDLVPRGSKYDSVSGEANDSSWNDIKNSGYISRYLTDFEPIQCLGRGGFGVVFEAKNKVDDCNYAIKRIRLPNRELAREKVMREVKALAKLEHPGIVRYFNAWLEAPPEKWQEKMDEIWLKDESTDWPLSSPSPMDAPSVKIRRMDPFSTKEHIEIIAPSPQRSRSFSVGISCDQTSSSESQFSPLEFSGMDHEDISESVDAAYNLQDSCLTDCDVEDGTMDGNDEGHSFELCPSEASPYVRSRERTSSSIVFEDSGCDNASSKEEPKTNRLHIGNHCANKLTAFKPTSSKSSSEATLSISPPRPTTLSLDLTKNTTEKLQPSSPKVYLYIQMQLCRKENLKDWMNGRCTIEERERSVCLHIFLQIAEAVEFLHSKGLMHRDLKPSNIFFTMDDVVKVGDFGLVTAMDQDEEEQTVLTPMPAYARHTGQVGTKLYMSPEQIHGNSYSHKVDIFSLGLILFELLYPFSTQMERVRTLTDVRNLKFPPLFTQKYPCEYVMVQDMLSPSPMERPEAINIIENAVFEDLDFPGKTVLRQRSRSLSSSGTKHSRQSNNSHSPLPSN

In the case of `COCc1cc(Cl)cc(S(=O)(=O)Nc2cccc(-c3cn(C)c4ncnc(N)c34)c2F)c1Cl` [Example 29], the half-inhibitory concentration (IC50) is no more than 100 nM against PERK enzyme, 100 to 500 nM in experiment [1], 100 to 500 nM at GCN2 kinase and 1000 to 10000 nM in the experiment with CCRF-CEM leukemia cells.
Consider `Cn1cc(-c2cccc(NS(=O)(=O)c3cc(Cl)cc(CO)c3Br)c2F)c2c(N)ncnc21` [Example 33], for which the IC50 (at PERK enzyme; in experiment [1]; on GCN2 kinase; in the experiment with CCRF-CEM leukemia cells) was no more than 100 nM in each case.
As for `Nc1ncnc2c1c(-c1cccc(NS(=O)(=O)c3cc(Cl)cc(CO)c3Cl)c1F)cn2C1CCNCC1` [Example 15], the IC50 at PERK enzyme is no more than 100 nM; in experiment [1], 500 to 1000 nM; on GCN2 kinase it was no more than 100 nM; in the experiment with CCRF-CEM leukemia cells, 100 to 500 nM.
In the case of `Cn1cc(-c2cc(F)cc(NS(=O)(=O)c3cc(Cl)cc(CO)c3Cl)c2)c2c(N)ncnc21` [Example 6], the IC50 on PERK enzyme is no more than 100 nM; in experiment [1], 100 to 500 nM; against GCN2 kinase, 100 to 500 nM; in the experiment on CCRF-CEM leukemia cells, 500 to 1000 nM.
Regarding `CC(=O)OCc1cc(Cl)cc(S(=O)(=O)Nc2cccc(-c3cn(C)c4ncnc(N)c34)c2F)c1Cl` [Example 1, 3-(N-(3-(4-amino-7-methyl-7H-pyrrolo[2,3-d]pyrimidin-5-yl)-2-fluorophenyl)sulfamoyl)-2,5-dichlorobenzyl acetate], the IC50 against PERK enzyme was no more than 100 nM; in experiment [1] it was 100 to 500 nM; on GCN2 kinase, 1000 to 10000 nM; with CCRF-CEM leukemia cells, 100 to 500 nM.
On to `Cn1cc(-n2cc(-c3cccc(NS(=O)(=O)c4cc(Cl)cc(CO)c4Cl)c3F)c3c(N)ncnc32)cn1` [Example 31], for which the IC50 (at PERK enzyme; in experiment [1]; at GCN2 kinase; with CCRF-CEM leukemia cells) was no more than 100 nM each time.
For `CN1CCC(n2cc(-c3cccc(NS(=O)(=O)c4cc(Cl)cc(CO)c4Cl)c3F)c3c(N)ncnc32)CC1` [Example 17], the “H929 NS ATF4 ELISA (ATF4 stim)” value in experiment [2] was “+++ (an ATF4 stim greater than 10 fold and less than or equal to 20 fold)”. Further, the IC50 (in experiment [1]; with CCRF-CEM leukemia cells) was no more than 100 nM in each case.
For the compound `CCC(C)(C)C(=O)OCc1cc(Cl)cc(S(=O)(=O)Nc2cccc(-c3cn(C)c4ncnc(N)c34)c2F)c1Cl` [Example 30], the IC50 on PERK enzyme fell in the range of 1000 to 10000 nM; in experiment [1], 500 to 1000 nM; on GCN2 kinase it was 1000 to 10000 nM; in the experiment on CCRF-CEM leukemia cells it was 1000 to 10000 nM.
With `Nc1ncnc2c1c(-c1cccc(NS(=O)(=O)c3cc(Cl)cc(CO)c3Cl)c1F)cn2C1CNC1` [Example 16], the IC50 is no more than 100 nM against PERK enzyme, 100 to 500 nM in experiment [1], no more than 100 nM at GCN2 kinase and 500 to 1000 nM in the experiment on CCRF-CEM leukemia cells.
For the compound `Cn1cc(-c2cc(NS(=O)(=O)c3cc(Cl)cc(CO)c3Cl)cc(F)c2F)c2c(N)ncnc21` [Example 7], the IC50 against PERK enzyme was no more than 100 nM; in experiment [1], 100 to 500 nM; at GCN2 kinase, 100 to 500 nM; in the experiment with CCRF-CEM leukemia cells, 500 to 1000 nM.
Take `Nc1nccc2occ(-c3cccc(NS(=O)(=O)c4cc(Cl)cc(CO)c4Cl)c3F)c12` [Example 12]: the IC50 was in the range of 1000 to 10000 nM in experiment [1], 100 to 500 nM on GCN2 kinase and 1000 to 10000 nM in the experiment with CCRF-CEM leukemia cells.
In the case of `CC(C)(C)n1cc(-c2cccc(NS(=O)(=O)c3cc(Cl)cc(CO)c3Cl)c2F)c2c(N)ncnc21` [Example 13], the IC50 on PERK enzyme is no more than 100 nM; in experiment [1], 100 to 500 nM; against GCN2 kinase, 100 to 500 nM; in the experiment with CCRF-CEM leukemia cells, 100 to 500 nM.
On to `Cn1cc(-c2cccc(NS(=O)(=O)c3cc(Cl)cc(CO)c3Cl)c2F)c2c(N)nccc21` [Example 18], for which the half-maximal inhibitory concentration (IC50) at PERK enzyme is no more than 100 nM; in experiment [1], 1000 to 10000 nM; on GCN2 kinase it was 1000 to 10000 nM; in the experiment with CCRF-CEM leukemia cells it was 1000 to 10000 nM.
Consider `Nc1nccc2scc(-c3cccc(NS(=O)(=O)c4cc(Cl)cc(CO)c4Cl)c3F)c12` [Example 11], for which the IC50 fell in the range of 1000 to 10000 nM in experiment [1], 100 to 500 nM at GCN2 kinase and 500 to 1000 nM with CCRF-CEM leukemia cells.
As for `Cn1cc(-c2cccc(NS(=O)(=O)c3cc(F)cc(CO)c3Cl)c2F)c2c(N)ncnc21` [Example 19], the IC50 at PERK enzyme is no more than 100 nM; in experiment [1], no more than 100 nM; against GCN2 kinase it was 100 to 500 nM; in the experiment with CCRF-CEM leukemia cells, 100 to 500 nM.
`CC(=O)OCc1cc(Cl)cc(S(=O)(=O)Nc2cccc(-c3cn(C4COC4)c4ncnc(N)c34)c2F)c1Cl` [Example 9]: the IC50 against PERK enzyme was no more than 100 nM; in experiment [1], no more than 100 nM; on GCN2 kinase, 1000 to 10000 nM; in the experiment on CCRF-CEM leukemia cells it was 100 to 500 nM.
Consider `[2H]C([2H])([2H])n1cc(-c2cccc(NS(=O)(=O)c3cc(Cl)cc(CO)c3Cl)c2F)c2c(N)ncnc21` [Example 27], for which the IC50 (against PERK enzyme; in experiment [1]; on GCN2 kinase; with CCRF-CEM leukemia cells) was no more than 100 nM in each case.
Regarding `Cn1cc(-c2cccc(NS(=O)(=O)c3cc(Cl)cc(CO)c3F)c2F)c2c(N)ncnc21` [Example 22], the concentration for half-maximal inhibition (IC50) against PERK enzyme is no more than 100 nM; in experiment [1], 100 to 500 nM; at GCN2 kinase, 100 to 500 nM; in the experiment on CCRF-CEM leukemia cells it was 1000 to 10000 nM.
Turning to `Nc1ncnc2c1c(-c1cccc(NS(=O)(=O)c3cc(Cl)cc(CO)c3Cl)c1F)cn2-c1cn[nH]c1` [Example 32], the concentration for half-maximal inhibition (IC50) was no more than 100 nM against PERK enzyme, 100 to 500 nM in experiment [1], no more than 100 nM against GCN2 kinase and no more than 100 nM with CCRF-CEM leukemia cells.
Take `Cn1cc(-c2cccc(NS(=O)(=O)c3cc(Cl)cc(CO)c3Cl)c2Cl)c2c(N)ncnc21` [Example 20]: the IC50 on PERK enzyme is no more than 100 nM; in experiment [1], 100 to 500 nM; against GCN2 kinase, 100 to 500 nM; in the experiment with CCRF-CEM leukemia cells it was 100 to 500 nM.

The values above are taken from US20230382915A1, “GCN2 AND PERK KINASE INHIBITORS AND METHODS OF USE THEREOF” (Deciphera Pharmaceuticals, LLC, priority 2021, published 2023).
